The results in this text go back to PMC8741257, “Identification of novel non-toxic and anti-angiogenic α-fluorinated chalcones as potent colchicine binding site inhibitors” (Journal of Enzyme Inhibition and Medicinal Chemistry, 2022).

For assay [1], the system named is Caspase -3/-7/-9 and PARP in MGC-803 cells. As to the kind of experiment: Western blot of apoptosis-related proteins. It counts as cell-based, human. The conditions noted are these: 18, 36 and 72 nM, 48 h. On the procedure:
The Caspase family proteins are considered to be critical regulators of cell apoptosis, in which Caspase-3 is one of the most important "executioner" of apoptosis induction, capable of cleaving many important cellular matrices and represent the hallmark of apoptosis. To explore the apoptosis-associated protein alterations, the expression of Caspase -3/-7/-9 and PARP was analysed.
The protein levels in MGC-803 cells were assessed via western blot analysis. Exponentially growing MGC-803 cells were seeded at a density of 6 × 10^5/dishes and incubated overnight. Then 18, 36, 72nΜ of 4c were added in triplicate for 48 h incubation. After the cells were washed with cold PBS, the supernatant was removed. The supernatant was collected by centrifuging at 12,000 g for 10 min at 4 °C. The protein concentration in the supernatant was determined by using a BSA protein assay kit. Samples were prepared in SDS-PAGE loading buffer after BSA analysis to quantify proteins, then boiled for 10 min at 100 °C. Western blot analyses were conducted after separation by SDS-PAGE electrophoresis and transfer to nitrocellulose filter (NC) membranes. Immunoblotting was performed according to the antibody manufacturers’ recommendations.

In assay [2] the test system is MGC-803 cells. As to the kind of experiment: Wound healing migration assay. The class given is cell-based, human. The conditions noted are these: 72 nM, after 48 h, control approximately 64%. The protocol:
(§1) Metastasis is one of the leading causes of morbidity and mortality of cancer patients. Microtubules-targeting inhibitors have also been reported to interfere with cell migration and invasion. Accordingly, the in vitro would healing assay and Transwell assays were performed to investigate the inhibitory effect of compound 4c on the migration and invasion of MGC-803 cells. As shown Figure 8(A,C), the scratches healing rate in the control group was approximately 64%. By contrast, the cells treated with 4c have much smaller scratched areas recovery at all concentrations. […] Cell invasion is an important malignant behaviour during cancer metastasis. In Tanswell assay, MGC-803 cells were seeded into upper chambers with pre-coated Matrigel stimulating base membrane in order to assess the cellular invasion.
MGC-803 cells and HUVECs were seeded in 24-well plates and cultivated for 24 h at 37 °C. The cells were scribed vertically with a gun tip and washed with PBS to remove dead cells. The containing different concentrations of 4c were added to the scratched monolayers. The migrated cells were photographed under a light microscope at indicated time points from the scratch. Take a picture and use the image J software to calculate the area of the cell scratches.

Assay [3] concerns MGC-803 cells. As to the kind of experiment: Transwell cell invasion assay. The settings on record: compared with control group. The class given is cell-based, human. The protocol:
as §1
Matrix gel was thawed overnight at 4 °C. […] Transwell was placed into a 24-well plate, 35% acetic acid (300 μL) was added to the upper chamber of the chamber, and after acetic acid completely entered the lower chamber, 100 μL of acetic acid from the lower chamber was aspirated into a 96-well plate, and three replicate wells of each concentration were shaken for 10 min, and the absorbance was measured at 560 nm with an enzyme marker.

In assay [4] the test system is 293 T (human embryonic kidney cell). Briefly: Growth inhibition of normal human cells. The class given is cell-based. The settings on record: HEK-293T, triplicate, mean ± SD. On the procedure: (§2) The effect of compound 4c on three types of normal human cell lines including LO2 (human hepatocyte cells), 293 T (human embryonic kidney cell) and THP-1-derived macrophages was then determined.

In assay [5] the test system is LO2 (human hepatocyte cells). As to the kind of experiment: Growth inhibition of normal human cells. The class given is cell-based. The conditions noted are these: triplicate, mean ± SD. The protocol:
as §2

The subject of assay [6] is THP-1-derived macrophages. As to the kind of experiment: Growth inhibition of normal human cells. The class given is cell-based. The conditions noted are these: Macrophage, triplicate, mean ± SD. The protocol:
as §2

The test system of assay [7] is HUVECs (human umbilical vein endothelial cells). Briefly: Transwell cell invasion assay. It counts as cell-based. The conditions noted are these: 2.5, 5 and 10 µM, 24 h. On the procedure:
HUVECs (human umbilical vein endothelial cells) grown on Matrigel were commonly used as a tube formation model for studying the physiological and pathological processes of the vascular system in vitro, and a widely studied human endothelial cell type in angiogenesis. The effect of 4c on endothelial cell migration was assessed by using HUVECs. Standardised wounds were made in confluent monolayers of HUVECs and then exposed to compound 4c at 2.5, 5 and 10 µM for 48 h. […] We further evaluated the capacity of 4 s on endothelial cell invasion using a Transwell assay.
Matrix gel was thawed overnight at 4 °C. […] Then the cells were washed three times with PBS and fixed cells by 4% paraformaldehyde for 30 min. Subsequently, 0.2% crystal violet solution was added, stained for 30 min, and the invasion of cells was observed under the microscope. Transwell was placed into a 24-well plate, 35% acetic acid (300 μL) was added to the upper chamber of the chamber, and after acetic acid completely entered the lower chamber, 100 μL of acetic acid from the lower chamber was aspirated into a 96-well plate, and three replicate wells of each concentration were shaken for 10 min, and the absorbance was measured at 560 nm with an enzyme marker.

In assay [8] the test system is Hela (human cervical cancer cells). Briefly: Antiproliferative activity (SRB assay). It counts as cell-based. The settings on record: mean ± SD, three separated experiments, 72 h. On the procedure:
(§3) MCF-7, MGC-803, Hela and HepG-2 cell lines were cultured in a base medium (90% DMEM and 10% FBS), A549 and U937 were cultured in a base medium (90% PRMI-1640 and 10% FBS) at 37 °C, 5% CO2 and a saturated humidity atmosphere. All the mediums were supplemented with 10% FBS and 1% […]/streptomycin (all cells were purchased from Shanghai Institutes for Biological Sciences, Chinese Academy of Sciences, Shanghai, China).
(§4) A549, MGC-803, MCF-7, HepG2 and Hela cells were seeded at the appropriate cell line density (3 × 10^3 to 4 × 10^3 cells/well). The cells were then incubated at 37 °C for 24 h in a humidified 5%CO2 in 96-well plates prior to experiments. After a further 72 h of incubation, cell proliferation was quantified with SRB ([…]) to determine the number of surviving cells. The absorbance at 560 nm was measured by microplate. The experiment was repeated three times, and the data were listed in the form of mean and standard deviation.

For assay [9], the system named is MCF-7 (human breast cancer cells). Briefly: Antiproliferative activity (SRB assay). It counts as cell-based. The conditions noted are these: MCF7, mean ± SD, three separated experiments, 72 h. The protocol:
as §3, §4

For assay [10], the system named is A549 (human non-small cell lung cancer). As to the kind of experiment: Antiproliferative activity (SRB assay). The conditions noted are these: mean ± SD, three separated experiments, 72 h. The class given is cell-based. On the procedure: as §3, §4
Assay [11] relates to HepG2 (human liver cancer cells). Briefly: Antiproliferative activity (SRB assay). It counts as cell-based. The conditions noted are these: mean ± SD, three separated experiments, 72 h. On the procedure: as §3, §4

For the molecule `COc1cc(C(=O)/C(F)=C/c2c[nH]c3cc(Br)ccc23)cc(OC)c1OC` [4c, (Z)-3–(6-bromo-1H-indol-3-yl)-2-fluoro-1–(3,4,5-trimethoxyphenyl)prop-2-en-1-one], the “cleaved Caspase-3/-7/-9 expression” value in assay [1] was “up-regulation of cleaved Caspase-3/-7/-9”. For the same molecule, the “migration rates (scratch healing)” value in the assay on MGC-803 cells [2] is given as 10%. Further, the “invasion ability (Transwell, Matrigel)” value in the assay with MGC-803 cells [3] is listed as “significant reduced invasion ability”. The 50% inhibitory concentration (IC50) in [4] came out at 1050 ± 220 nM; in assay [5], 680 ± 220 nM; in [6] it was 1210 ± 17 nM; in assay [8], 25 ± 1 nM; in assay [9] it was 254 ± 37 nM; in assay [10] it was 202 ± 12 nM. In assay [11], this molecule gave an IC50 above 5000 nM. The “number of cells invaded into lower chamber” value in assay [7] is recorded as “gradually decreased in a dose-dependent manner”.
